Laboratory results from ChEMBL document CHEMBL5241050, “Using membrane perturbing small molecules to target chronic persistent infections” (RSC Med Chem, 2021).
In brackets after ≈: the same amount, converted by molar mass. Each block holds one molecule with its values, some of them ahead of it.

Tests used:
Staphylococcus aureus [1] = assay: Antibacterial activity against methicillin resistant Staphylococcus aureus R3890 assessed as inhibition of bacterial growth incubated for 24 hrs by broth microdilution method; type: functional
Staphylococcus aureus [2] = assay: Antibacterial activity against methicillin resistant Staphylococcus aureus ATCC 33591 assessed as inhibition of bacterial growth incubated for 24 hrs by broth microdilution method; type: functional
Staphylococcus aureus [3] = assay: Antibacterial activity against methicillin resistant Staphylococcus aureus R3889 assessed as inhibition of bacterial growth incubated for 24 hrs by broth microdilution method; type: functional
Staphylococcus aureus [4] = assay: Antibacterial activity against Staphylococcus aureus assessed as inhibition of bacterial growth; type: functional
Pseudomonas aeruginosa [5] = assay: Antibacterial activity against Pseudomonas aeruginosa assessed as inhibition of bacterial growth; type: functional
Staphylococcus aureus [6] = assay: Antimicrobial activity against methicillin resistant Staphylococcus aureus assessed as inhibition of bacterial growth by CLSI protocol based microdilution method; type: functional
Staphylococcus aureus [7] = assay: Antimicrobial activity against methicillin resistant Staphylococcus aureus MW2 BAA-1707 persisters assessed as inhibition of bacterial colonies; type: functional
[8] = Hemolytic activity in human erythrocytes assessed as hemolysis incubated for 1 hrs; type: toxicity, cell-based, Erythrocyte
Streptococcus mutans = assay: Antibacterial activity against wild type planktonic Streptococcus mutans UA159 assessed as inhibition of bacterial growth incubated for 20 to 24 hrs; type: functional; conditions: time 20-24 hrs
Pseudomonas aeruginosa [9] = assay: Antibacterial activity against Pseudomonas aeruginosa persistent cells assessed as fold reduction in bacterial cell at 68 ug/ml in the presence of ofloxacin relative to ofloxacin alone; type: functional; conditions: dose 68 µg/ml
Pseudomonas aeruginosa [10] = assay: Antibacterial activity against Pseudomonas aeruginosa persistent cells assessed as fold reduction in bacterial cell in the presence of ofloxacin relative to ofloxacin alone; type: functional
Staphylococcus aureus [11] = assay: Antibacterial activity against Staphylococcus aureus assessed as inhibition of bacterial growth by microplate reader analysis; type: functional
Enterococcus faecium = assay: Antibacterial activity against Enterococcus faecium assessed as inhibition of bacterial growth by microplate reader analysis; type: functional
Pseudomonas aeruginosa [12] = assay: Antibacterial activity against Pseudomonas aeruginosa assessed as inhibition of bacterial growth by microplate reader analysis; type: functional
Acinetobacter baumannii = assay: Antibacterial activity against Acinetobacter baumannii assessed as inhibition of bacterial growth by microplate reader analysis; type: functional
Klebsiella pneumoniae = assay: Antibacterial activity against Klebsiella pneumoniae assessed as inhibition of bacterial growth by microplate reader analysis; type: functional
Enterobacter sp. = assay: Antibacterial activity against Enterobacter sp. assessed as inhibition of bacterial growth by microplate reader analysis; type: functional
Staphylococcus aureus [13] = assay: Antibacterial activity against Staphylococcus aureus ATCC 9144 assessed as inhibition of bacterial growth incubated for 24 hrs; type: functional
Staphylococcus aureus [14] = assay: Antimicrobial activity against vancomycin resistant Staphylococcus aureus assessed as inhibition of bacterial growth by CLSI protocol based microdilution method; type: functional
Staphylococcus aureus [15] = assay: Antibacterial activity against methicillin resistant Staphylococcus aureus MW2 assessed as inhibition of bacterial growth measured after 2 hrs; type: functional
[16] = Cytotoxicity against human hepatocytes assessed as reduction in cell growth by WST-1 assay; type: toxicity, cell-based, Hepatocyte; conditions: read-out: LC50 (the source's name)

Structure (SMILES): CCCCCCCCCCN(Cc1cccc2ccccc12)C(=O)[C@@H](N)CCCCN
- MIC (Staphylococcus aureus [1]): 4.1 µg/mL (≈ 9.63 µM)
- MIC (Staphylococcus aureus [2]): 4.1 µg/mL (≈ 9.63 µM)
- MIC (Staphylococcus aureus [3]): 4.1 µg/mL (≈ 9.63 µM)

Structure (SMILES): CCC(C)NCC(O)Cn1c2ccc(Cl)cc2c2cc(Cl)ccc21 (configuration not stated)
- MIC (Staphylococcus aureus [4]): 4.63 µg/mL (≈ 12.7 µM)
- MIC (Pseudomonas aeruginosa [5]): 4.63 µg/mL (≈ 12.7 µM)

Structure (SMILES): O=C(O)c1c(Sc2ccccc2)c2cc(Cl)ccc2n1Cc1ccc(Cl)cc1
- MIC (Staphylococcus aureus [6]): 4 µg/mL (≈ 9.34 µM)
- Activity (Staphylococcus aureus [7]): 64 µg/mL
- HC50 at 1 h [8]: 47 µg/mL

- MIC (Streptococcus mutans): 0.65 µg/mL (≈ 1.99 µM)
Structure (SMILES): CC(C)(C)c1ccc(CCc2ccc(C(C)(C)C)c(O)c2)cc1O

Structure (SMILES): O=C(O)c1c(Oc2ccc(I)cc2)c2cc(Cl)ccc2n1Cc1ccc(Cl)cc1
- MIC (Staphylococcus aureus [6]): 1 µg/mL (≈ 1.86 µM)
- Activity (Staphylococcus aureus [7]): 16 µg/mL
- HC50 at 1 h [8]: > 64 µg/mL

Structure (SMILES): O[C@H](CNCCc1ccc(Cl)cc1Cl)COc1ccccc1
- fold change (FC) (Pseudomonas aeruginosa [9]): 7200

Structure (SMILES): O[C@H](CNCc1ccccc1)COc1ccc(Cl)cc1Cl
- fold change (FC) (Pseudomonas aeruginosa [10]): >2000

- MIC (Staphylococcus aureus [11]): 0.02 µg/mL (≈ 0.0547 µM)
- MIC (Enterococcus faecium): 0.02 µg/mL (≈ 0.0547 µM)
- MIC (Pseudomonas aeruginosa [12]): 0.02 µg/mL (≈ 0.0547 µM)
- MIC (Acinetobacter baumannii): 0.02 µg/mL (≈ 0.0547 µM)
- MIC (Klebsiella pneumoniae): 0.02 µg/mL (≈ 0.0547 µM)
- MIC (Enterobacter sp.): 0.02 µg/mL (≈ 0.0547 µM)
Structure (SMILES): Nc1nc(N)c2c(ccc3c2ccn3Cc2ccc(-c3ccccc3)cc2)n1

- MIC (Staphylococcus aureus [11]): 2 µg/mL (≈ 5.38 µM)
- MIC (Enterococcus faecium): 2 µg/mL (≈ 5.38 µM)
- MIC (Pseudomonas aeruginosa [12]): 2 µg/mL (≈ 5.38 µM)
- MIC (Acinetobacter baumannii): 2 µg/mL (≈ 5.38 µM)
- MIC (Klebsiella pneumoniae): 2 µg/mL (≈ 5.38 µM)
- MIC (Enterobacter sp.): 2 µg/mL (≈ 5.38 µM)
Structure (SMILES): CC(C)c1ccc(Cn2ccc3c4c(N)nc(NC5CC5)nc4ccc32)cc1

Structure (SMILES): Oc1c(Cl)cc(Cl)cc1Sc1cc(Cl)cc(Cl)c1O [BITHIONOL]
- MIC50 (Staphylococcus aureus [13]): 8 µM (≈ 2.85 µg/mL)
- MIC (Staphylococcus aureus [14]): 0.5 µg/mL (≈ 1.4 µM)

- MIC (Streptococcus mutans): 66.6 µg/mL (≈ 250 µM)
Structure (SMILES): C=CCc1ccc(O)c(-c2ccc(O)c(CC=C)c2)c1 [HONOKIOL]

Structure (SMILES): O=C(O)c1ccc2cc(-c3ccc(O)c(C45CC6CC(CC(C6)C4)C5)c3)ccc2c1 [O-DEMETHYLATED ADAPALENE]
- MIC (Staphylococcus aureus [15]): 1 µg/mL (≈ 2.51 µM)
- CC50 [16]: 20 µg/mL (≈ 50.2 µM)
- HC50 at 1 h [8]: 32 µg/mL
